Experimental data as given in US5783587A, “Benzoyl Piperidines/pyrrolidines for enhancing synaptic response” (The Regents of the University of California, priority 1997, dated 1998).

Tested on: AMPA receptors
Assay: In vitro physiological testing: field EPSPs in slices of rat hippocampus (CA1)
Assay type: cell-based, rat (Sprague-Dawley)
Conditions: rat hippocampal slices, 15-minute perfusion, paired-pulse, second response
Description: The physiological effects of the compounds of this invention were determined by in vitro tests using slices of rat hippocampus according to the following procedure. Excitatory responses (field EPSPs) were measured in hippocampal slices, which are maintained in a recording chamber continuously perfused with artificial cerebrospinal fluid (ACSF). During a 15-minute interval, the perfusion medium was switched to one containing various concentrations of the test compounds. Responses collected immediately before and at the end of drug perfusion were superimposed in order to calculate both the percent increase in EPSP amplitude and the percent increase in the width of the response at one-half the peak height (half-width).
To conduct these tests, the hippocampus was removed from anesthetized, 2-month old Sprague-Dawley rats, and in vitro slices (400 micrometers thick) were prepared and maintained in an interface chamber at 35° C. using conventional techniques. This is the procedure used by Dunwiddie and Lynch, as reported in J. Physiol. 276:353-367 (1978). The chamber was constantly perfused at 0.5 mL/min with ACSF containing (in mM): NaCl, 124; KCl, 3; KH2 PO4, 1.25; MgSO4, 2.5; CaCl2, 3.4; NaHCO3, 26; glucose, 10; and L-ascorbate, 2. A bipolar nichrome stimulating electrode was positioned in the dendritic layer (stratum radiatum) of the hippocampal subfield CA1 close to the border of subfield CA3.
Current pulses (0.1 msec) through the stimulating electrode activated a population of the Schaffer-commissural (SC) fibers, which arise from neurons in the subdivision CA3 and terminate in synapses on the dendrites of CA1 neurons. Activation of these synapses causes them to release the transmitter glutamate. Glutamate binds to the post-synaptic AMPA receptors, which then transiently open an associated ion channel and permit a sodium current to enter the postsynaptic cell. This current results in a voltage in the extracellular space (the field excitatory post-synaptic potential or field "EPSP"), which is recorded by a high impedance recording electrode positioned in the middle of the stratum radiatum of CA1.
With the intensity of the stimulation current adjusted to produce half-maximal EPSPs (typically about 1.5-2.0 mV), paired stimulation pulses were given every 40 seconds with an interpulse interval of 200 msec. The field EPSPs of the second response were digitized and analyzed to determine amplitude and half-width. If the responses are stable for 15-30 minutes (baseline), test compounds were added to the perfusion lines for a period of about 15 minutes. The perfusion was then changed back to regular ACSF.
Paired-pulse stimulation is used in this type of test because stimulation of the SC fibers in part activates interneurons that generate an inhibitory postsynaptic potential (IPSP) in the pyramidal cells of CA1. This feed-forward IPSP typically sets in after the EPSP reaches its peak. The feed-forward IPSP accelerates the repolarization and shortens the decay phase of the EPSP, and could thereby partially mask the effects of the test compounds. One of the relevant features of the feed-forward IPSP is that it cannot be reactivated for several hundred milliseconds following a stimulation pulse. This phenomenon can be employed to advantage to eliminate IPSP by delivering paired pulses separated by 200 milliseconds and using the second ("primed") response for data analysis.
The field EPSP recorded in field CA1 after stimulation of CA3 axons is known to be mediated by AMPA receptors: the receptors are present in the synapses, as reported by Kessler, et al., Brain Res. 560:337-341 (1991), and drugs that selectively block the receptor selectively block the field EPSP. […] See, for example, Staubli, et al., Psychobiology 18:377-381 (1990); Xiao, et al., Hippocampus 1:373-380 (1991); and Staubli, et al., Hippocampus 2:49-58 (1992). […]
In the case of `COCc1ccc2c(c1)OC1CCCN1C2=O` (racemic) [Compound VI, (R, S)-6-Methoxymethyl-2,3-dihydro-1H-pyrrolo[2,1-b][1,3]benzoxazine-9(3aH)-one], the “estimated concentration required to increase the amplitude of the EPSP to 25% above baseline (+25% Amplitude)” value is reported as 0.1 mM and the “estimated concentration required to increase the half-width of the EPSP by 50% (+50% Half-Width)” value is reported as 0.2 mM. In the case of `COCc1ccc2c(c1)C(=O)N1CCCC1O2` (racemic) [Compound VII, (R,S)-7-Methoxymethyl-2,3-dihydro-1H-pyrrolo[2,1-b][1,3]benzoxazine-9(3aH)-one], the “estimated concentration required to increase the amplitude of the EPSP to 25% above baseline (+25% Amplitude)” value is reported as 0.3 mM and the “estimated concentration required to increase the half-width of the EPSP by 50% (+50% Half-Width)” value is reported as 0.2 mM. With `COCc1ccc(C(=O)N2CCCCC2)cc1` [Compound I, 1-(4'-Methoxymethylbenzoyl)piperidine] the “estimated concentration required to increase the amplitude of the EPSP to 25% above baseline (+25% Amplitude)” value was 0.3 mM and the “estimated concentration required to increase the half-width of the EPSP by 50% (+50% Half-Width)” value was 0.3 mM. With `COCc1cccc(C(=O)N2CCCCC2)c1` [Compound II, 1-(3'-Methoxymethylbenzoyl)piperidine] the “estimated concentration required to increase the amplitude of the EPSP to 25% above baseline (+25% Amplitude)” value was 0.3 mM and the “estimated concentration required to increase the half-width of the EPSP by 50% (+50% Half-Width)” value was > 1 mM. With `CCOCc1ccc(C(=O)N2CCCCC2)cc1` [Compound III, 1-(4'-Ethoxymethylbenzoyl)piperidine] the “estimated concentration required to increase the amplitude of the EPSP to 25% above baseline (+25% Amplitude)” value was > 1 mM and the “estimated concentration required to increase the half-width of the EPSP by 50% (+50% Half-Width)” value was 0.2 mM. In the case of `O=C(c1ccc(CO)cc1)N1CCCCC1` [Compound IV, 1-(4'-Hydroxymethylbenzoyl)piperidine], the “estimated concentration required to increase the amplitude of the EPSP to 25% above baseline (+25% Amplitude)” value is reported as 1 mM and the “estimated concentration required to increase the half-width of the EPSP by 50% (+50% Half-Width)” value is reported as > 1 mM. For `O=C(c1ccc(COc2ccc3c(c2)OCO3)cc1)N1CCCCC1` [Compound V, 1-(4'-(3",4"-Methylenedioxyphenoxy)-methylbenzoyl)piperidine], the “estimated concentration required to increase the amplitude of the EPSP to 25% above baseline (+25% Amplitude)” value was 0.05 mM and the “estimated concentration required to increase the half-width of the EPSP by 50% (+50% Half-Width)” value was > 0.1 mM.

Tested on: not given
Assay: not given
Conditions: following peripheral administration in humans; cited from earlier work
In the case of `COc1ccc(C(=O)N2CCCC2=O)cc1` [aniracetam, N-anisoyl-2-pyrrolidinone], the “fraction of drug converted to anisoyl-GABA” value is given as “about 80%”.
